Source: article PMC8280112, “Substrate reduction therapy for Krabbe disease and metachromatic leukodystrophy using a novel ceramide galactosyltransferase inhibitor” (Scientific Reports, 2021)

Legend:
[1] = target: T1, Human CGT (Homo sapiens, UniProt Q16880); experiment: CGT enzyme assay (cell-lysate assay); assay type: biochemical; settings: lysate of CHO cells expressing human UGT8
T1 construct: made in house; host or cells: CHO cells expressing UGT8; crude M-PER lysate
T1 sequence (Q16880 21-541): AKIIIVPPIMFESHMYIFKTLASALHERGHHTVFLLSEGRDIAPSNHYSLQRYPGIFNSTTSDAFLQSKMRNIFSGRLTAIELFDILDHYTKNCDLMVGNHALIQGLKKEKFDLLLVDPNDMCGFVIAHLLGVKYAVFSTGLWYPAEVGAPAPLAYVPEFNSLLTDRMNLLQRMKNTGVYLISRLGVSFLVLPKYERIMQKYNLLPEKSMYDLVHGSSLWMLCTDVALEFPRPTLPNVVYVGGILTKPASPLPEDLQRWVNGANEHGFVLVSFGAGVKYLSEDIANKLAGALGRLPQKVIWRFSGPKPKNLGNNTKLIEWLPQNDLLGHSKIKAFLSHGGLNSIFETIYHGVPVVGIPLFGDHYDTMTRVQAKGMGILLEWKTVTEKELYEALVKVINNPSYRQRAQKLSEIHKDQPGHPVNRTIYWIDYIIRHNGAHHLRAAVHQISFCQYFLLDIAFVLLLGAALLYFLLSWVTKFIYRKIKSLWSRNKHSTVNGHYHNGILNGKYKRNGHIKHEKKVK
Experimental: Human CGT was obtained from a cell lysate from CHO cells expressing UGT8 (made by BioMarin) prepared in M-PER with proteinase inhibitors (Sigma). Compounds, serially diluted in DMSO and Tween 80, were added to 4 µg/well of CHO/CGT cell lysate to make 20 µL final reaction volume containing 0.5% DMSO and 0.01% Tween 80 in the reaction buffer consisting of 10 µM NDB-(2R-OH)-C6 ceramide (made by BioMarin), 17.5 µM UDP-Galactose (Sigma), 35 µM of dioleoylphosphatidylcholine (DOPC), 5 mM MgCl2, 5 mM MnCl2, 1% BSA, 15 mM KCl, 1 mM EGTA, 8 mM CHAPS, 10 mM HEPES–NaOH pH 7.2. The reaction was incubated at 37 °C for 1 h and stopped by adding 80 µL of methanol:acetonitrile (1:3) with 5 µM N-dodecanoyl-NBD-galactosylceramide (Matreya) internal standard (IS) for 30 min. 200 µL H2O:ACN (1:1) was added for 5 min and then centrifuged at 4000 rpm for 38 min at RT before quantifying NDB-(2R-OH)-C6-galactosylceramide (BioMarin) by LC–MS on a Rapid Fire 360 mass spectrometer (Agilent) coupled with a API4000 + MS in electrospray ionization (ESI) negative mode (Applied Biosystems). These assay conditions were used to screen the Bio-active lipid library (Cayman Cat# 10506).

[2] = test system: Twitcher mice; experiment: Twitcher mouse survival; assay type: in vivo; settings: for median survival: IP three times per week
Experimental: (§1) Mice heterozygous for the Twitcher mutation on the congenic C57BL/6 background were originally purchased from The Jackson Laboratories (stock #000845). Homozygous GALC −/− animals were generated from heterozygous mating. Genotypes were determined on PND1 by PCR as previously described[43],[44]. Animals that died prior to weaning on PND28 were excluded from the study unless otherwise noted. Animals were euthanized when they became moribund as defined by any of the following: losing 25% of their maximal body weight, ataxia severe enough to impair ability to eat or drink, or lack of response to tactile stimulus. Animals used for tissue collection were euthanized by anesthetic overdose and perfused transcardially with PBS for three min. Animals for lifespan analysis were euthanized using CO2 compressed gas delivered at 10–30% chamber volume displacement per min. […] Tissues were harvested and flash frozen in liquid nitrogen.

[3] = test system: GalCer and psychosine levels; experiment: Twitcher mouse brain psychosine and galactosylceramide analysis; assay type: in vivo; settings: Twitcher mice treated PND3-PND28
Experimental: as §1
Galactosylsphingosine (psychosine), and galactosylceramide were measured by tandem mass spectrometry as previously described. Briefly, tissue samples were homogenized in 0.04 M citric acid. Internal controls in 200 µL methanol were added to 50 µL of each sample. […] Galactosylsphingosine and galactosylceramide were detected using MRM on an AB SCIEX 4000QTRAP tandem mass spectrometer using ESI in the positive ion mode. […]

C[C@H]1N(c2ccc(Br)cc2)C(=O)N(c2ccc(Br)cc2)C1(O)c1cccc(OC(F)(F)F)c1 (stereo partly drawn) [S202]
IC50 [1]: 15 nM | median survival ([2]; PND3 start, 0.15 mg/kg): 60 days | median survival ([2]; PND15 start, 5.0 mg/kg): ~ 63 days | effect on lifespan ([2]; PND3 start, highest dose tested (1.5 mg/kg)): reduced lifespan | non-hydroxy-GalCer in the brain [3]: dose-dependent reduction | psychosine levels in the brain [3]: reduced to the same extent as the non-hydroxy-GalCer
